Data on 1 sequence can be found in patent publication US7645740B2, “Peptide sequence found in Laminin 5 for treating skin impairments” (Laboratoires d'Anjou Centre National de la Recherche …, priority 2004, dated 2010).

The test system of one assay is NHK-old. The assay can be described thus: Cell proliferation test (XTT), NHK-old. It counts as cell-based, human. To be noted: peptide 0.05% and 0.1%, 5th hour. On the procedure:
NHK-10 years and NHK-71 years were seeded in 96-well plates at a rate of 10,000 cells per well. After 24 hours, the culture medium was removed and replaced with serum-free medium containing the peptide quantities given in the graphs and reagent XTT. The plates were then placed in the incubator at 37° C. and absorbance readings were taken at 1 h, 2 h, 3 h, 4 h and 5 h. Peptide-free controls were carried out on the same plate.
(§1) The effect of the peptide on cell proliferation was analysed with the aid of a calorimetric test (Cell Proliferation Kit XTT, Roche Diagnostics, Meylan, France) on the cells use for the cell adhesion test, i.e. HT1080, A431, HBL100 cells and normal human keratinocytes from young and elderly individuals.
The chemical reaction used in the test is based on the production of NADPH by living cells, leading to the reduction of yellow tetrazolium XTT salts to orange formazan salts. Absorbance was measured at 490 nm using an ELISA plate reader. Cells were seeded in 96-well plates at a rate of 10,000 cells per well (6 wells/condition) in KBM-2 culture medium. After 24 hours in culture at 37° C. with 5% CO2, the culture medium was removed and replaced with serum-free medium containing the peptide quantities given in the graphs and the test reagent. The plates were then placed in the incubator at 37° C. and absorbance readings were taken at 1 h, 2 h, 3 h, 4 h and 5 h. […]

The subject of a further assay is A431 cells. As to the kind of experiment: Cell proliferation test (XTT), A431. It counts as cell-based. To be noted: A431, peptide 0.5% and 1%, serum-free medium, 5th hour. How it is done: A431 cells were seeded in 96-well plates at a rate of 10,000 cells per well. After 24 hours, the culture medium was removed and replaced with serum-free medium containing the peptide quantities given in the graphs and reagent XTT. The plates were then placed in the incubator at 37° C. and absorbance readings were taken at 1 h, 2 h, 3 h, 4 h and 5 h. Peptide-free controls were carried out on the same plate.
as §1
The chemical reaction used in the test is based on the production of NADPH by living cells, leading to the reduction of yellow tetrazolium XTT salts to orange formazan salts. Absorbance was measured at 490 nm using an ELISA plate reader. […] After 24 hours in culture at 37° C. with 5% CO2, the culture medium was removed and replaced with serum-free medium containing the peptide quantities given in the graphs and the test reagent. The plates were then placed in the incubator at 37° C. and absorbance readings were taken at 1 h, 2 h, 3 h, 4 h and 5 h. […] In this case, cell viability was calculated according to the following formula: % viability=(Abs. Cells with peptide/Abs. Control cells)×100.

For assay [1], the system named is HBL100 cells (human mammary epithelium). As to the kind of experiment: Cell adhesion test to immobilized peptides, HBL100. The class given is cell-based. On the procedure: Dose-dependent cell adhesion of cell line HBL100 to various peptides 1, 2 and 3. The peptides were immobilized in 96-well plates at the concentrations given on the abscissa. 8×10^4 cells were deposited in each well and plates were incubated at 37° C. for 1 hour. After washing, attached cells were fixed and cell adhesion was measured as described in the methodology section.
Peptides 1, 2 and 3 were used for the cell adhesion experiments. A range of 7 decreasing concentrations (100 micrograms/ml, 50 micrograms/ml, 25 micrograms/ml, 12.5 micrograms/ml, 6.25 micrograms/ml, 3.125 micrograms/ml and 1.562 micrograms/ml) was made up by successive dilution in PBS (Phosphate Buffer Saline, KH2PO4 1.54 mM; Na2HPO4 1.42 mM; NaCl-131 mM) using a starting solution at a concentration of 1 mg/ml. These solutions were immediately distributed onto a 96-well culture plate (Greinher, Dutscher, Brumath, France) at a rate of 100 μl per well. Plates were then placed at +4° C. for 16 to 18 hours. The solutions were then removed by turning the plates and each well was saturated with a 1% PBS-BSA solution (bovine serum albumin). Three additional wells without the substrate underwent the same treatment and were used as blanks.
Epithelial cells were detached from the culture dishes using a trypsin/EDAT solution (0.05-0.02%) then suspended in DMEM medium without additives for the cell lines and in KBM-2 without additive for human keratinocytes. The number of seeded cells per well is given in the graphs (50,000 to 100,000 cells per well).
After cell seeding, the multi-well plates were placed in an incubator at 37° C. under 5% CO2. After incubation for 30 to 60 minutes, cells were observed under a phase contrast microscope in order to verify that the test was conducted correctly. The adhesion medium was then removed and each well was washed in a sterile PBS solution to remove non-adhering cells. The remaining cells, attached to the substrate, were then fixed using a solution of 1% glutaraldehyde in PBS for 15 minutes. The glutaraldehyde solution as removed and the cells were stained with a crystal violet solution diluted to 1% in distilled water for 30 minutes.
After rinsing in water several times, cells were permeabilized by means of a 0.02% triton solution for 15 minutes in order to solubilize the crystal violet. Absorbances were read at 570 nm using an ELISA plate reader (MR500, Dynatech, Guernsey, Channel Islands). Each experimental point was carried out in triplicate. The blank value represented the mean absorbance of 3 control wells (BSA). This was subtracted from each of the optical density values for the experimental points. We then calculated the mean for the three absorbance values for each of the triplicate samples.
The results are presented in the form of a graph with the absorbance values on the ordinate and the various substrate concentrations on the abscissa. Attached cells were photographed by phase contrast microscopy.
The following cells from epithelial cell lines were used initially (commonly used in preliminary studies on cell adhesion): • line HT1080 cells (human fibrosarcoma), American Type Culture Collection CCL-121. • line HB100 cells (human mammary epithelium), American Type Culture Collection HTB-124. • line A431 cells (skin epitheliods), American Type Culture Collection CRL-1555.

In the case of “TALRIRATYGEY (Human laminin 5) [Peptide 1]”, the “mean increase in proliferation compared to the control” value in the assay on NHK-old is at most 7%. For the same sequence, the “mean increase in cell proliferation compared to the control” value in the assay with A431 cells is on record as 8%. Besides, in assay [1] (HBL100, 0 to 10 micrograms immobilized peptide, 8×10^4 cells per well, 1 hour 37° C., absorbance 570 nm), the “cell adhesion to immobilized peptide” value is listed as “led to cell adhesion”. In addition, in assay [1] (HBL100, FIG. 2), the “immobilized peptide quantity at which adhesion occurred” value was 0.31 micrograms and the “immobilized peptide quantity at which maximum adhesion was achieved” value was found to be 1.25 micrograms.
